Tests used:
[1] = biological target: Thymidine kinase (Human herpesvirus 2); assay: Inhibition of TdR phosphorylation using thymidine kinase (TK) assay for herpes simplex virus type 2 (HSV-2).
[2] = biological target: Thymidine kinase (Human herpesvirus 2); assay: as above; remark: listed apart in the source

SMILES	IC50 [1] [µM]	Ki [2] [µM]
O=c1[nH]c(NCCCCCO)nc2nc[nH]c12	40	–
O=c1[nH]c(Nc2ccc3ccccc3c2)nc2nc[nH]c12	10	–
O=c1[nH]c(Nc2ccc(C(F)(F)F)cc2)nc2nc[nH]c12	40	–
O=c1[nH]c(NCc2ccc(Cl)cc2)nc2nc[nH]c12	5.5	–
O=c1[nH]c(Nc2cccc(CO)c2)nc2nc[nH]c12	20	–
O=c1[nH]c(Nc2ccc(O)cc2)nc2nc[nH]c12	20	–
O=c1[nH]c(Nc2ccc(Br)cc2)nc2nc[nH]c12	0.6	–
O=c1[nH]c(Nc2ccc(F)c(Cl)c2)nc2nc[nH]c12	2.5	–
O=c1[nH]c(Nc2ccc(Br)c(Br)c2)nc2nc[nH]c12	1.3	–
Cc1ccc(Nc2nc3nc[nH]c3c(=O)[nH]2)cc1	6	–
O=c1[nH]c(Nc2ccc(F)c(F)c2)nc2nc[nH]c12	2.2	–
O=c1[nH]c(Nc2cccc(Cl)c2)nc2nc[nH]c12	0.35	–
CCc1cccc(Nc2nc3nc[nH]c3c(=O)[nH]2)c1	4	–
CCCCCCNC1=NC(=O)C2N=CN([C@H]3C[C@H](O)[C@@H](CO)O3)C2=N1 (stereo partly specified)	–	2
O=c1[nH]c(Nc2cccc(C(F)(F)F)c2)nc2nc[nH]c12 [2-(3-Trifluoromethyl-phenylamino)-1,9-dihydro-purin-6-one]	0.1	–
CCCCCCNc1nc2nc[nH]c2c(=O)[nH]1 [2-Hexylamino-1,9-dihydro-purin-6-one]	10	–
